In article PMC10945559, “Forgotten Natural Products: Semisynthetic Development of Blasticidin S As an Antibiotic Lead” (ACS Medicinal Chemistry Letters, 2024):
Values after ≈ are worked out from the molar mass of the structure shown. Where two headings read alike, the source gives them in different places. Marks after values point to notes of the source that are not given here.

Legend:
[1] = test system: vancomycin-resistant Enterococcus (VRE); test: Broth microdilution antibacterial assay; assay type: cell-based; conditions: for MIC / IC50: Enterococcus, VRE; for IC50: average of two biological replicates ± S.D., read-out: IC50; for Selectivity index (CC50/IC50): MRC-5 CC50 / VRE IC50
Description: (§1) Antibacterial Assay Procedure
(§2) Broth Microdilution Assays
(§3) Media and solutions were autoclaved or sterile filtered prior to use and manipulations were carried out in a laminar flow hood. Antibacterial testing was performed in polypropylene 96 -well flat bottom plates. The minimal inhibitory concentration of blasticidin S ( 1) hydrochloride, P10 (2), and derivatives 15–22 were assessed against Staphylococcus aureus ΔNorA, S. aureus 8810, methicillin-resistant S. aureus (MRSA) ATCC 43300, Enterococcus faecalis ATCC 29212, vancomycin-resistant Enterococcus, Klebsiella pneumoniae ATCC 29665, Pseudomonas aeruginosa, and Acinetobacter baumannii ATCC 17978 using serial dilutions. Doxycycline (Gold Bio) as a positive control and the vehicle as a negative control. Stock solutions of each compound were prepared at 5.12 mg/mL in 50% DMSO/water and serially diluted in 50% DMSO/water to create master plates. From the master plates, 10 μL of each dilution was applied to test plates using a Bravo automated liquid transfer system (Agilent). Bacteria previously grown overnight (37 °C, 120 – 200 RPM), in LB broth were diluted to an OD600 of 0.0 5 in cation-adjusted Mueller-Hinton broth, grown to an OD600 of ~0.5, and diluted to an OD600 of 0.004 in cation-adjusted Mueller-Hinton broth. These diluted cultures were applied to the test plates (190 μL per test well) resulting in final concentrations of the test compounds of 256–2 μg/mL. Growth controls (wells with inoculated media but no vehicle or test compounds) were included to assess any potential toxicity from the vehicle. The plates were incubated at 37 °C for 16–18 h, except for VRE and E. faecalis, which were incubated at 37 °C for 24 h. Inhibition was determined by measuring the optical density at 600 nm (OD600) with a Cytation 3 plate reader (BioTek). The optical density measurements were normalized to the positive and negative controls and the vehicle and growth controls were compared and found to be indistinguishable, indicating no toxicity from the vehicle used. The MIC was the lowest concentration that inhibited >90% of growth. Two biological replicates were performed in duplicate. MIC values are reported […]
(§4) as a range from biological replicates. Inhibition curves were generated using Prism (GraphPad).
(§5) The IC50 values reported in Table 2 are the average of the two biological replicates ± standard […]
(§6) Cytotoxicity Assay Procedure
(§7) Human lung fibroblast cells, MRC -5 (CCL-171), were cultured at 37℃ with 5% CO2 and were plated at 5000 cells/well in a 96 -well plate. Compounds 1, 2, and 15-22 were initially prepared at concentrations of 5.12 mg/mL in a vehicle of 50% DMSO. Dilutions of the compounds (4 – 512 μg/mL) were then prepared in growth medium containing Dulbecco’s modified Eagle’s medium (DMEM) with high glucose, L -glutamine, and sodium pyruvate supplemented with 10% fetal bovine serum (FBS), 1% non -essential amino acids, and 0.1% gentamicin sulfate, and 25mM HEPES. The vehicle (50% DMSO) was also prepared via the sa me dilution series to serve as a control. Growth media was removed from the cells and replaced with the same volume of each compound dilution. Cells were incubated for 24 h , after which CellTiter 96® AQueous One Solution Reagent was added to each well as recommended by the manufacturer’s protocol (Promega CellTiter 96 AQueous One Solution Cell Proliferation Assay) and further incubated for 4 h. After incubation, absorbance was measured at 490 nm on an Infinite M plex multimode microplate reader with i -control Tecan software. Viability was calculated by subtracting media only absorbance values and normalizing to the vehicle control at each concentration. The presented data is one assay performed in triplicate that is representative of multiple trials. Data for the 256 and 512 μg/mL concentrations were removed from analysis due to vehicle toxicity […]
(§8) CC50 concentrations were determined via the ED50 Plus v1.0 software (https://archive.org/details/ed50v10_zip).

[2] = test system: Acinetobacter baumannii ATCC 17978; test: Broth microdilution antibacterial assay; assay type: cell-based; conditions: for IC50 / MIC: Acinetobacter baumannii, ATCC17978, A. baumannii; for IC50: average of two biological replicates ± S.D., read-out: IC50; for MIC: lowest concentration inhibiting >90% of growth, range from biological replicates, read-out: MIC; for Selectivity index (CC50/IC50): MRC-5 CC50 / A. baumannii IC50
Description: as §1, §2, §3, §4, §5, §6, §7, §8

[3] = test system: Staphylococcus aureus ΔNorA; test: Broth microdilution antibacterial assay; assay type: cell-based; conditions: for Selectivity index (CC50/IC50): MRC-5 CC50 / S. aureus ΔNorA IC50; for IC50 / MIC: Staphylococcus aureus
Description: as §1, §2, §3, §4, §5, §6, §7, §8

[4] = test system: Enterococcus faecalis ATCC 29212; test: Broth microdilution antibacterial assay; assay type: cell-based; conditions: for MIC / IC50: Enterococcus faecalis, ATCC29212; for IC50: average of two biological replicates ± S.D. (18: one biological replicate), read-out: IC50; for Selectivity index (CC50/IC50): MRC-5 CC50 / E. faecalis IC50
Description: as §1, §2, §3, §4, §5, §6, §7, §8

[5] = test system: Pseudomonas aeruginosa; test: Broth microdilution antibacterial assay; assay type: cell-based; conditions: for Selectivity index (CC50/IC50): MRC-5 CC50 / P. aeruginosa IC50; for IC50 / MIC: Pseudomonas aeruginosa; for IC50: average of two biological replicates ± S.D., read-out: IC50
Description: as §1, §2, §3, §4, §5, §6, §7, §8

[6] = test system: Klebsiella pneumoniae ATCC 29665; test: Broth microdilution antibacterial assay; assay type: cell-based; conditions: for IC50 / MIC: Klebsiella pneumoniae, ATCC29665, K. pneumoniae; for IC50: average of two biological replicates ± S.D., read-out: IC50; for MIC: lowest concentration inhibiting >90% of growth, range from biological replicates, read-out: MIC; for Selectivity index (CC50/IC50): MRC-5 CC50 / K. pneumoniae IC50
Description: as §1, §2, §3, §4, §5, §6, §7, §8

[7] = in vitro; assay type: cell-based, human; conditions: human; MRC-5 (lung fibroblast); 24 h; one biological replicate (n = 3); read-out: CC50 for human cells
Description: as §4, §5, §6, §7, §8
Figure S41. The effect of compounds on cell viability. The lines represent non -linear regression curves, and error bars represent means ± […]
SD (n=3). […]

[8] = test system: methicillin-resistant S. aureus (MRSA) ATCC 43300; test: Broth microdilution antibacterial assay; assay type: cell-based, Staphylococcus aureus; conditions: for Selectivity index (CC50/IC50): MRC-5 CC50 / MRSA IC50; for IC50 / MIC: Staphylococcus aureus; for IC50: average of two biological replicates ± S.D., read-out: IC50
Description: as §1, §2, §3, §4, §5, §6, §7, §8

[9] = test system: S. aureus 8810; test: Broth microdilution antibacterial assay; assay type: cell-based, Staphylococcus aureus; conditions: for Selectivity index (CC50/IC50): MRC-5 CC50 / S. aureus IC50; for IC50 / MIC: Staphylococcus aureus, 8810; for IC50: average of two biological replicates ± S.D., read-out: IC50
Description: as §1, §2, §3, §4, §5, §6, §7, §8

[10] = average MIC, Table S3, read-out: Average Activity against VRE
[11] = 24 h, lowest concentration inhibiting >90% of growth, range from biological replicates, read-out: MIC
[12] = E. faecalis, 24 h, lowest concentration inhibiting >90% of growth, range from biological replicates, read-out: MIC
[13] = average MIC, Table S3, read-out: Average Activity against E. faecalis
[14] = P. aeruginosa, lowest concentration inhibiting >90% of growth, range from biological replicates, read-out: MIC
[15] = MRSA, lowest concentration inhibiting >90% of growth, range from biological replicates, read-out: MIC
[16] = average MIC, Table S3, read-out: Average Activity against MRSA
[17] = S. aureus, lowest concentration inhibiting >90% of growth, range from biological replicates, read-out: MIC
[18] = average MIC, Table S3, read-out: Average Activity against S. aureus

| SMILES | MIC [1, 10] [µg/mL] | IC50 [1] [µg/mL] | Selectivity index (CC50/IC50) [1] | IC50 [2] [µg/mL] | MIC [2] [µg/mL] | Selectivity index (CC50/IC50) [2] | Selectivity index (CC50/IC50) [3] | IC50 [3] [µg/mL] | MIC [3] [µg/mL] | MIC [4, 12] [µg/mL] | IC50 ([4]; E. faecalis) [µg/mL] | MIC [4, 13] [µg/mL] | Selectivity index (CC50/IC50) [4] | Selectivity index (CC50/IC50) [5] | IC50 ([5]; P. aeruginosa) [µg/mL] | IC50 [6] [µg/mL] | MIC [6] [µg/mL] | Selectivity index (CC50/IC50) [6] | CC50 at 24 h [7] [µg/mL] | Selectivity index (CC50/IC50) [8] | also measured |
| --- | --- | --- | --- | --- | --- | --- | --- | --- | --- | --- | --- | --- | --- | --- | --- | --- | --- | --- | --- | --- | --- |
| CN(CC[C@H](N)CC(=O)N[C@H]1C=C[C@H](n2ccc(N)nc2=O)O[C@@H]1C(=O)NCCO)C(=N)N [Compound 21] | 128 (≈ 275 µM) | 15.3 ± 3.3 (≈ 32.9 µM) | 3.8 | 21.2 ± 0.6 (≈ 45.5 µM) | 64 to 128 (≈ 137 to 275 µM) | 2.7 | 1.6 | 35.5 ± 2.5 (≈ 76.3 µM) | 256 (≈ 550 µM) | 32 (≈ 68.7 µM) | 22.3 ± 4 (≈ 47.9 µM) | 32 (≈ 68.7 µM) | 2.6 | 1.7 | 34.1 ± 0.3 (≈ 73.3 µM) | 19.7 ± 0.5 (≈ 42.3 µM) | 64 (≈ 137 µM) | 3.0 | 58.1 (≈ 125 µM) | 4.9 | MIC [1, 11]: 128 µg/mL (≈ 275 µM); MIC [5, 14]: 128 µg/mL (≈ 275 µM); IC50 ([8]; MRSA): 11.8 ± 0.2 µg/mL (≈ 25.3 µM); MIC [8, 15]: 32 to 64 µg/mL (≈ 68.7 to 137 µM); MIC [8, 16]: 48 µg/mL (≈ 103 µM); Selectivity index (CC50/IC50) [9]: 7.1; IC50 ([9]; S. aureus): 8.1 ± 0.7 µg/mL (≈ 17.4 µM); MIC [9, 17]: 64 µg/mL (≈ 137 µM); MIC [9, 18]: 64 µg/mL (≈ 137 µM) |
| CN(C)C(=O)[C@H]1O[C@@H](n2ccc(N)nc2=O)C=C[C@@H]1NC(=O)C[C@@H](N)CCN(C)C(=N)N [Compound 18] | 96 (≈ 214 µM) | 27.7 ± 11 (≈ 61.6 µM) | 2.3 | 46.4 ± 7 (≈ 103 µM) | 256 (≈ 570 µM) | 1.4 | 3.5 | 18.3 ± 1.4 (≈ 40.7 µM) | 128 (≈ 285 µM) | 16 to 32 (≈ 35.6 to 71.2 µM) | 17 (≈ 37.8 µM) | 32 (≈ 71.2 µM) | 3.7 ^b | 3.4 | 18.8 ± 2.6 (≈ 41.8 µM) | 60.1 ± 4.7 (≈ 134 µM) | 256 (≈ 570 µM) | 1.1 | 63.9 (≈ 142 µM) | 5.0 | MIC ([1]; 24 h): 64 to 128 µg/mL (≈ 142 to 285 µM); MIC [5]: 64 to 128 µg/mL (≈ 142 to 285 µM); IC50 ([8]; MRSA): 12.8 ± 1.9 µg/mL (≈ 28.5 µM); MIC [8, 15]: 32 µg/mL (≈ 71.2 µM); MIC [8, 16]: 32 µg/mL (≈ 71.2 µM); Selectivity index (CC50/IC50) [9]: 9.1; IC50 ([9]; S. aureus): 7 ± 1.5 µg/mL (≈ 15.6 µM); MIC [9, 17]: 64 µg/mL (≈ 142 µM); MIC [9, 18]: 64 µg/mL (≈ 142 µM) |
| C#CCCNC(=O)[C@H]1O[C@@H](n2ccc(N)nc2=O)C=C[C@@H]1NC(=O)C[C@@H](N)CCN(C)C(=N)N [Compound 20] | 64 (≈ 135 µM) | 22.1 ± 12 (≈ 46.7 µM) | 3.0 | 24.3 ± 3.2 (≈ 51.3 µM) | 128 (≈ 270 µM) | 2.7 | 4.3 | 15.2 ± 2.1 (≈ 32.1 µM) | 64 (≈ 135 µM) | 16 to 32 (≈ 33.8 to 67.6 µM) | 11.1 ± 4.1 (≈ 23.4 µM) | 16 (≈ 33.8 µM) | 5.9 | 3.3 | 20.2 ± 1.3 (≈ 42.7 µM) | 30.7 ± 5.3 (≈ 64.8 µM) | 128 (≈ 270 µM) | 2.2 | 65.9 (≈ 139 µM) | 9.1 | MIC [1, 11]: 64 µg/mL (≈ 135 µM); MIC [5, 14]: 64 µg/mL (≈ 135 µM); IC50 ([8]; MRSA): 7.2 ± 2.3 µg/mL (≈ 15.2 µM); MIC [8, 15]: 32 µg/mL (≈ 67.6 µM); MIC [8, 16]: 32 µg/mL (≈ 67.6 µM); Selectivity index (CC50/IC50) [9]: 26; IC50 ([9]; S. aureus): 2.5 ± 0.2 µg/mL (≈ 5.28 µM); MIC [9, 17]: 16 µg/mL (≈ 33.8 µM); MIC [9, 18]: 16 µg/mL (≈ 33.8 µM) |
